In patent US20230158025A1 (UNIVERSITY OF UTAH RESEARCH FOUNDATION, priority 2020, published 2023):
Where two headings read alike, the source gives them in different places.

How the values were obtained:
recombinant human GALK1 = recombinant human GALK1 (Homo sapiens, UniProt P51570); assay: hGALK1 biochemical activity assay (Kinase-Glo Plus, ATP depletion)
Procedure: In vitro hGALK1 activity assays were performed as previously described. Liu et al., Bioorg. Med. Chem. Lett. 25(3): 721-727 (2015), which is incorporated by reference herein for the specific teachings thereof. The biochemical assay was performed by coupling the activity of recombinant human or mouse GALK1 to the Kinase-Glo Plus luminescent ATP detection kit, using ATP depletion as a measure of GALK1 turnover. Specifically, three μL/well of ATP substrate solution (35 μM ATP) in assay buffer (20 mM HEPES pH 8.0, 5 mM MgCl2, 60 mM NaCl, 1 mM DTT, 0.01% BSA final concentration) was dispensed into 1536-well assay plates (Greiner, white solid-bottom medium-binding plates). Aliquots of compound (23 nL solubilized in DMSO) were transferred to the assay plates using a Kalypsys 1536-well pintool such that 11 concentrations with 1/3 dilutions ranging from 57.4 μM-0.97 nM are tested. One μL/well of GALK-galactose solution (5 nM GALK1, 100 μM galactose) in assay buffer was then added, yielding a final reaction volume of 4 μL/well. Following a 1-hour room temperature incubation, 4 μL of Kinase-Glo Plus detection reagent was added to provide an ATP-dependent luminescent readout (final assay volume: 8 μL/well).

recombinant mouse GALK1 = recombinant mouse GALK1 (Mus musculus, UniProt Q9R0N0); assay: mGALK1 biochemical activity assay (Kinase-Glo Plus, ATP depletion)
Procedure: In vitro hGALK1 activity assays were performed as previously described. Liu et al., Bioorg. […] The biochemical assay was performed by coupling the activity of recombinant human or mouse GALK1 to the Kinase-Glo Plus luminescent ATP detection kit, using ATP depletion as a measure of GALK1 turnover. […] One μL/well of GALK-galactose solution (5 nM GALK1, 100 μM galactose) in assay buffer was then added, yielding a final reaction volume of 4 μL/well. Following a 1-hour room temperature incubation, 4 μL of Kinase-Glo Plus detection reagent was added to provide an ATP-dependent luminescent readout (final assay volume: 8 μL/well).

[1] = aqueous kinetic solubility
[2] = rat microsomal stability (RLM)
[3] = recombinant human GALK1, Kinase-Glo Plus ATP depletion, read-out: hGALK
[4] = recombinant mouse GALK1, Kinase-Glo Plus ATP depletion
[5] = recombinant mouse GALK1, Kinase-Glo Plus ATP depletion, read-out: mGALK
[6] = recombinant human GALK1, Kinase-Glo Plus ATP depletion, bracketed figure in the cell, e.g. (−1.2), is not defined in the text shown, read-out: hGALK
[7] = recombinant mouse GALK1, Kinase-Glo Plus ATP depletion, bracketed figure in the cell, e.g. (−1.2), is not defined in the text shown, read-out: mGALK
[8] = microsomal stability half-life, minutes
[9] = Tables 2-15, 35 μM ATP, 100 μM galactose, 1 h, bracketed figure after some values (e.g. −1.2) is undefined and not reported
[10] = recombinant human GALK1, Kinase-Glo Plus ATP depletion
[11] = Tables 2-15, 35 μM ATP, 100 μM galactose, 1 h, bracketed figure after some values is undefined and not reported
[12] = Tables 2-15, 35 μM ATP, 100 μM galactose, 1 h, bracketed figure after some values (e.g. −1.2) is undefined and not reported, read-out: hGALK IC50
[13] = Tables 2-15, 35 μM ATP, 100 μM galactose, 1 h, bracketed figure after some values is undefined and not reported, read-out: mGALK IC50

Sequence of recombinant human GALK1 (P51570 whole entry): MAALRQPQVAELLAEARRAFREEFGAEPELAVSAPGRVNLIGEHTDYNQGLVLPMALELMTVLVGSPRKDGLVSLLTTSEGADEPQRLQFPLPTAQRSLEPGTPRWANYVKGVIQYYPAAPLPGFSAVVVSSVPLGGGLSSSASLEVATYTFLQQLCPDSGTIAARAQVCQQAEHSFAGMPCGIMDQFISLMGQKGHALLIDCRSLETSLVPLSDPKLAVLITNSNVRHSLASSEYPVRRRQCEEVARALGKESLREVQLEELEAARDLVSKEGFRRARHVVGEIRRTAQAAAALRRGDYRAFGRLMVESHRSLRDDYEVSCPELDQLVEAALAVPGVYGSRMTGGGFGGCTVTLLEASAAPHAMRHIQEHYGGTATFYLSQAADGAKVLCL
Sequence of recombinant mouse GALK1 (Q9R0N0 whole entry): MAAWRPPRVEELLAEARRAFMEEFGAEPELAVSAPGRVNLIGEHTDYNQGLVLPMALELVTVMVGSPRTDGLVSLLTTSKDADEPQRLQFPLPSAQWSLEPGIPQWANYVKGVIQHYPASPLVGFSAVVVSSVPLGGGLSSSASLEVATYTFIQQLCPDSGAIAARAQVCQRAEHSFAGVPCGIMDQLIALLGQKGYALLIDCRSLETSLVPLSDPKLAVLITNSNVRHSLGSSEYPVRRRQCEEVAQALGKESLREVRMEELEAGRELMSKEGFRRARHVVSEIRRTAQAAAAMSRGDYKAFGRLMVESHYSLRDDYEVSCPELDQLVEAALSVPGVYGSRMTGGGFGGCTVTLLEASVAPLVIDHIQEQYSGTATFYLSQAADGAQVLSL

SMILES	IC50 (recombinant human GALK1; [3])	mGALK (μM) (recombinant mouse GALK1; [4])	Sol. ([1]; aqueous kinetic solubility)	Metab. Stabil. (m) ([2]; microsomal stability half-life)	IC50 (recombinant mouse GALK1; [5])	also measured
CNCCNC(=O)C1=C(C)NC(Nc2nc3ccc(F)cc3o2)=NC1c1ccccc1Cl (centres unmarked) [Compound 33, 4-(2-chlorophenyl)-2-((6-fluorobenzo[d]oxazol-2-yl)amino)-6-methyl-N-(2-(methylamino)ethyl)-1,4-dihydropyrimidine-5-carboxamido]	15.3 µM				6.11 µM	Sol. [1]: >67 µg/mL; Metab. Stabil. (m) ([2]; microsomal half-life): >30 m
CC1=C(C(=O)Nc2cc(C(=O)O)ccn2)C(c2ccccc2Cl)N=C(Nc2nc3ccccc3o2)N1C (centres unmarked) [Compound 273, 2-(2-(benzo[d]oxazol-2-ylamino)-4-(2-chlorophenyl)-1,6-dimethyl-1,4-dihydropyrimidine-5-carboxamido)isonicotinic acid]			>76 µg/mL			IC50 (recombinant human GALK1; [6]): 21.7 µM; IC50 (recombinant mouse GALK1; [7]): 34.3 µM; Metab. Stabil. (m) [2, 8]: >30 m
O=C1NCCC2=C1C(c1ccccc1Cl)N=C(Nc1nc3ccccc3o1)N2 (centres unmarked) [Compound 245, 2-(benzo[d]oxazol-2-ylamino)-4-(2-chlorophenyl)-4,6,7,8-tetrahydropyrido[4,3-d]pyrimidin-5(1H)-one]			<1 µg/mL			IC50 (recombinant human GALK1; [6]): 17.2 µM; IC50 (recombinant mouse GALK1; [7]): 21.7 µM; Metab. Stabil. (m) [2, 8]: 27.12 m
CCOC(=O)C1=C(C(C)C)NC(Nc2nc3ccccc3o2)=NC1c1ccccc1Cl (centres unmarked) [Compound 240, ethyl 2-(benzo[d]oxazol-2-ylamino)-4-(2-chlorophenyl)-6-isopropyl-1,4-dihydropyrimidine-5-carboxylate]		in- active	<1 µg/mL	57.5 m		hGALK (μM) (recombinant human GALK1; [10]): in- active
CC1=C(C(=O)Nc2ccc(C(=O)N3CCOCC3)cc2)C(c2ccccc2Cl)N=C(Nc2nc3ccccc3o2)N1 (centres unmarked) [Compound 182, 2-(benzo[d]oxazol-2-ylamino)-4-(2-chlorophenyl)-6-methyl-N-(4-(morpholine-4-carbonyl)phenyl)-1,4-dihydropyrimidine-5-carboxamide]	19.3 µM		<1 µg/mL	>30 m	21.7 µM	IC50 (recombinant human GALK1; [12]): 19.3 µM; IC50 (recombinant mouse GALK1; [13]): 21.7 µM
COC(=O)C1=C(C(F)(F)F)NC(Nc2nc3ccccc3o2)=NC1c1ccccc1Cl (centres unmarked) [Compound 241, methyl 2-(benzo[d]oxazol-2-ylamino)-4-(2-chlorophenyl)-6-(trifluoromethyl)-1,4-dihydropyrimidine-5-carboxylate]		in- active	2.65 µg/mL	10.46 m		hGALK (μM) (recombinant human GALK1; [10]): in- active
CC1=C(C(=O)Nc2ccc(CO)cn2)C(c2ccccc2Cl)N=C(Nc2nc3ccc(F)cc3o2)N1 (centres unmarked) [Compound 42, 4-(2-chlorophenyl)-2-((6-fluorobenzo[d]oxazol-2-yl)amino)-N-(5-(hydroxymethyl)pyridin-2-yl)-6-methyl-1,4-dihydropyrimidine-5-carboxamide]	12.2 µM				19.3 µM	Sol. [1]: <1 µg/mL; Metab. Stabil. (m) ([2]; microsomal half-life): >30 m
COc1ccc(C(=O)O)cc1NC(=O)C1=C(C)NC(Nc2nc3ccc(F)cc3o2)=NC1c1ccccc1Cl (centres unmarked) [Compound 27, 3-(4-(2-chlorophenyl)-2-((6-fluorobenzo[d]oxazol-2-yl)amino)-6-methyl-1,4-dihydropyrimidine-5-carboxamido)-4-methoxybenzoic acid]	2.17 µM				12.2 µM	Sol. [1]: 53.3 µg/mL; Metab. Stabil. (m) ([2]; microsomal half-life): >30 m
COC(=O)Cc1nnc(NC(=O)C2=C(C)NC(Nc3nc4ccccc4o3)=NC2c2ccccc2Cl)s1 (centres unmarked) [Compound 174, methyl 2-(5-(2-(benzo[d]oxazol-2-ylamino)-4-(2-chlorophenyl)-6-methyl-1,4-dihydropyrimidine-5-carboxamido)-1,3,4-thiadiazol-2-yl)acetate]	6.11 µM		<1 µg/mL	8.0854 m		IC50 (recombinant human GALK1; [12]): 6.11 µM

Continued, in another order:

IC50 (recombinant human GALK1; [3])	mGALK (μM) (recombinant mouse GALK1; [4])	Sol. ([1]; aqueous kinetic solubility)	Metab. Stabil. (m) ([2]; microsomal stability half-life)	IC50 (recombinant mouse GALK1; [5])	SMILES	also measured
4.85 µM	in- active	<1 µg/mL	30.79 m		CC1=C(C(=O)Nc2ccc(Cl)cn2)C(c2ccccc2Cl)N=C(Nc2nc3ccccc3o2)N1 (centres unmarked) [Compound 153, 2-(benzo[d]oxazol-2-ylamino)-4-(2-chlorophenyl)-N-(5-chloropyridin-2-yl)-6-methyl-1,4-dihydropyrimidine-5-carboxamide]	
	in- active	<1 µg/mL	4.223 m		CC1=C(C(=O)NCc2ccccc2Cl)C(c2ccccc2Cl)N=C(Nc2nc3ccccc3o2)N1 (centres unmarked) [Compound 216, 2-(benzo[d]oxazol-2-ylamino)-N-(2-chlorobenzyl)-4-(2-chlorophenyl)-6-methyl-1,4-dihydropyrimidine-5-carboxamide]	hGALK IC50 (recombinant human GALK1; [9]): inactive; hGALK (μM) (recombinant human GALK1; [10]): in- active; mGALK IC50 (recombinant mouse GALK1; [11]): inactive
	in- active	40.5 µg/mL	8.726 m		CC1=C(C(=O)NCc2cn(C)cn2)[C@@H](c2ccccc2Cl)N=C(Nc2nc3ccccc3o2)N1 [Compound 236, (S)-2-(benzo[d]oxazol-2-ylamino)-4-(2-chlorophenyl)-6-methyl-N-((1-methyl-1H-imidazol-4-yl)methyl)-1,4-dihydropyrimidine-5-carboxamide]	hGALK IC50 (recombinant human GALK1; [9]): inactive; hGALK (μM) (recombinant human GALK1; [10]): in- active; mGALK IC50 (recombinant mouse GALK1; [11]): inactive
7.69 µM		<1 µg/mL	>30 m	17.2 µM	CC1=C(C(=O)Nc2cccc(C(N)=O)c2)C(c2ccccc2Cl)N=C(Nc2nc3ccccc3o2)N1 (centres unmarked) [Compound 177, 2-(benzo[d]oxazol-2-ylamino)-N-(3-carbamoylphenyl)-4-(2-chlorophenyl)-6-methyl-1,4-dihydropyrimidine-5-carboxamide]	IC50 (recombinant human GALK1; [12]): 7.69 µM; IC50 (recombinant mouse GALK1; [13]): 17.2 µM
7.69 µM	in- active	<1 µg/mL	11.34 m		CC1=C(C(=O)NCc2ccc(F)cc2)C(c2ccccc2Cl)N=C(Nc2nc3ccccc3o2)N1 (centres unmarked) [Compound 217]	IC50 (recombinant human GALK1; [12]): 7.69 µM; mGALK IC50 (recombinant mouse GALK1; [11]): inactive
7.69 µM		<1 µg/mL	>30 m	9.68 µM	CC1=C(C(=O)Nc2ccccc2F)C(c2ccccc2Cl)N=C(Nc2nc3ccccc3o2)N1 (centres unmarked) [Compound 157, 2-(benzo[d]oxazol-2-ylamino)-N-(2-fluorophenyl)-4-(2-chlorophenyl)-6-methyl-1,4-dihydropyrimidine-5-carboxamide]	IC50 (recombinant mouse GALK1; [13]): 9.68 µM
6.11 µM		10.0 µg/mL	72.47 m	4.32 µM	CC1=C(C(=O)Nc2ccc(CN)cc2)C(c2ccccc2Cl)N=C(Nc2nc3ccccc3o2)N1 (centres unmarked) [Compound 169, N-(4-(aminomethyl)phenyl)-2-(benzo[d]oxazol-2-ylamino)-4-(2-chlorophenyl)-6-methyl-1,4-dihydropyrimidine-5-carboxamide]	IC50 (recombinant human GALK1; [12]): 6.11 µM; IC50 (recombinant mouse GALK1; [13]): 4.32 µM
6.85 µM		<1 µg/mL	>30 m	12.2 µM	CC1=C(C(=O)Nc2cccc(F)c2)C(c2ccccc2Cl)N=C(Nc2nc3ccccc3o2)N1 (centres unmarked) [Compound 158, 2-(benzo[d]oxazol-2-ylamino)-N-(3-fluorophenyl)-4-(2-chlorophenyl)-6-methyl-1,4-dihydropyrimidine-5-carboxamide]	IC50 (recombinant mouse GALK1; [13]): 12.2 µM
		<1 µg/mL	19.30 m	13.7 µM	CCOC(=O)C1=C(C)NC(Nc2nc3ccccc3o2)=NC1c1ccccc1Cl (centres unmarked) [Compound 239, ethyl 2-(benzo[d]oxazol-2-ylamino)-4-(2-chlorophenyl)-6-methyl-1,4-dihydropyrimidine-5-carboxylate]	hGALK (μM) (recombinant human GALK1; [10]): in- active
